In patent US20210386828A1, “METHODS FOR ENHANCING CANCER IMMUNOTHERAPY” (The Regents of the University of California, priority 2018, published 2021):

Experiments:
Myc-CaP cells [1] = test: Nuclear abundance of transcription factors (IB, flow cytometry); format: cell-based, mouse; conditions: 2 μM Oxali
Myc-CaP cells [2] = test: Immunoblot of IRF1 and phosphorylated STAT1; format: cell-based, mouse
Description: Protein loading was confirmed with tubulin antibodies.
The basis for the synergy between low-dose Oxali and IFNγ was investigated. […] Given the ability of Oxali to induce Ifngr2 mRNA expression, not only in Myc-CaP cells (FIG. 2D) but also in mouse and human melanoma cell lines (FIGS. 11C and 11D), it was postulated that the synergistic activation of IRF1 and STAT1 by Oxali plus IFNγ may be due to IFNγR2 induction.

Myc-CaP cells [3] = test: Surface MHC (H-2Kq) expression by flow cytometry; format: cell-based, mouse; conditions: for surface expression of H-2Kq: agent as named; for effect on the H-2Kq response to IFNγ: platinoid plus IFNγ
Description: (§1) Each dot represents an experiment and horizontal lines denote the median.

[4] = test system: Myc-CaP and TRAMP-C2 cells; test: RNA-seq of mouse PCa cells incubated with platinoids; format: cell-based; conditions: 2 μM, Myc-CaP
Description: FIGS. 1E-1G show total RNA from Myc-CaP cells incubated with indicated agents for 24 hr was subjected to RNA-seq. Top 20 hallmark gene sets were sorted by normalized enrichment score (NES). Immune-related gene sets are in blue (IFNγ signaling in light blue).
The top 20 hallmark gene sets sorted by normalized enrichment score (NES) are shown to depict the Oxali- and Cis-induced responses determined by GSEA analysis. Immune-related gene sets are colored blue (IFNγ signaling in light blue). […] Immune-related gene sets are in blue (IFNγ signaling in light blue).
To investigate how low-dose Oxali affects the PCa transcriptome, RNA sequencing (RNA-seq) was conducted on mouse PCa cells (Myc-CaP and TRAMP-C2) incubated with 2 μM of either Oxali or Cisplatin (Cis), a platinoid that, unlike Oxali, minimally enhances the response to PD-L1 blockade or ISP ablation (Pfirschke et al., 2016; Shalapour et al., 2015).

Myc-CaP cells [5] = test: qRT-PCR of MHC-I component mRNAs in Myc-CaP cells; format: cell-based, mouse; conditions: for effect of exogenous IFNγ on induction of MHC-I antigen presentation and processing genes by the platinoid: plus IFNγ
Description: as §1

Myc-CaP cells [6] = test system: Myc-CaP cells
Description: CRISPR-Cas9 was used to ablate cyclic GMP-AMP synthase (cGAS, encoded by Mb21d1) and Ifnar2 (FIG. 11K).

[7] = cells incubated with Oxali or Oxali+IFNγ

N.N.[Cl][Pt][Cl] [Cis, Cisplatin]
nuclear abundance of p65, NF-κB, CREB1, ATF3, P-ATM and JunB (Myc-CaP cells [1]): more transient and weaker effect
effect on IRF1 induction by IFNγ (Myc-CaP cells [2]; added to IFNγ): strongly potentiated
STAT1 phosphorylation (Myc-CaP cells [2]; added to IFNγ-treated cells): dramatically increased
surface expression of H-2Kq (Myc-CaP cells [3]): barely induced surface H-2Kq
effect on the H-2Kq response to IFNγ (Myc-CaP cells [3]): potentiated the response to IFNγ
induction of gene set responsive to NF-κB-dependent TNF signaling [4]: strongly induced
effect of exogenous IFNγ on induction of MHC-I antigen presentation and processing genes by the platinoid (Myc-CaP cells [5]): not as strong as that of Oxali+IFNγ
γH2AX, marker of DNA damage (Myc-CaP cells [6]): γH2AX induction

N.N.O=C([O-])C1(C(=O)[O-])CCC1.[Pt+2] [Carbo, carboplatin]
surface expression of H-2Kq (Myc-CaP cells [3]): barely induced surface H-2Kq
effect on the H-2Kq response to IFNγ (Myc-CaP cells [3]): potentiated the response to IFNγ
effect of exogenous IFNγ on induction of MHC-I antigen presentation and processing genes by the platinoid (Myc-CaP cells [5]): not as strong as that of Oxali+IFNγ

COc1c(Cl)cc2c([nH]c3cnccc32)c1NC(=O)c1cccnc1C [ML120B]
H-2Kq surface expression under IKKβ inhibition (Myc-CaP cells [3]; [7]): reduced
synergistic Psmb9 and Nlrc5 mRNA induction under IKKβ inhibition (Myc-CaP cells [5]; Oxali+IFNγ): attenuated
decrease in Ifngr2 mRNA (Myc-CaP cells [5]; [7]): 4 fold
